In assay [1] the test system is Staphylococcus aureus. Description: Bactericidal activity against methicillin-resistant Staphylococcus aureus JCSC 4744 measured after 24 hrs by sub-culturing. It is filed as functional. Conditions: JCSC 4744, 24 h.
Assay [2] concerns Staphylococcus aureus. Description: Induction of cell lysis in methicillin-resistant Staphylococcus aureus JCSC 4744 assessed as formation of membrane disruption at 8 fold MIC after 4 hrs by scanning electron microscopy. It is filed as functional, organism-based.
The subject of assay [3] is Staphylococcus aureus. Briefly: Antibacterial activity against Staphylococcus aureus CMCC 26003 incubated overnight by CLSI protocol based microdilution assay. A general note: Broth dilution looks for growth in wells or tubes with falling amounts of substance.
Assay [4] concerns Staphylococcus aureus. Briefly: Bactericidal activity against methicillin-resistant Staphylococcus aureus JCSC 4469 measured after 24 hrs by sub-culturing. Format: functional. Conditions: JCSC 4469, 24 h.
The subject of assay [5] is Staphylococcus aureus. Briefly: Bactericidal activity against methicillin-resistant Staphylococcus aureus JCSC 4744 assessed as reduction in cell survival by measuring colony forming units at MIC measured within 4 hrs by time-kill assay. Format: functional.
The subject of assay [6] is Staphylococcus aureus. Briefly: Antibacterial activity against methicillin-resistant Staphylococcus aureus JCSC 4744 incubated overnight by CLSI protocol based microdilution assay. Format: functional.
The subject of assay [7] is Staphylococcus aureus. Briefly: Induction of cell lysis in methicillin-resistant Staphylococcus aureus JCSC 4744 assessed as formation of membrane fissures at 8 fold MIC after 4 hrs by scanning electron microscopy. It is filed as functional, organism-based.
The subject of another assay is Escherichia coli. Description: Antibacterial activity against Escherichia coli ATCC 8739 incubated overnight by CLSI protocol based microdilution assay. Format: functional.
Assay [8] has as its system Bacillus cereus. Description: Antibacterial activity against Bacillus cereus CMCC 63302 incubated overnight by CLSI protocol based microdilution assay. It is filed as functional.
Assay [9] relates to Staphylococcus aureus. Briefly: Disruption of membrane integrity in methicillin-reisitant Staphylococcus aureus JCSC 4744 measured after 4 hrs by SYTOX-greeen-based fluorescence assay. It is filed as functional, organism-based.
Assay [10] concerns Staphylococcus aureus. Briefly: Antibacterial activity against methicillin-resistant Staphylococcus aureus JCSC 4469 incubated overnight by CLSI protocol based microdilution assay. It is filed as functional.
The test system of assay [11] is Staphylococcus aureus. Description: Bactericidal activity against Staphylococcus aureus CMCC 26003 measured after 24 hrs by sub-culturing. To be noted: CMCC 26003, 24 h.
Assay [12] relates to Bacillus cereus. Description: Bactericidal activity against Bacillus cereus CMCC 63302 measured after 24 hrs by sub-culturing. Conditions: CMCC 63302, 24 h. Format: functional.
In assay [13] the test system is Staphylococcus aureus. Description: Induction of cytoplasmic membrane depolarization in methicillin-resistant Staphylococcus aureus JCSC 4744 at 0.5 to 8 fold MIC by DiSC3-5 dye-based fluorescence assay. It is filed as functional, organism-based.
In assay [14] the test system is Staphylococcus aureus. Briefly: Bactericidal activity against methicillin-resistant Staphylococcus aureus JCSC 4744 assessed as reduction in cell survival by measuring colony forming units at MIC measured within 4 hrs by time-kill assay relative to control. Format: functional.
The test system of assay [15] is Staphylococcus aureus. Description: Bactericidal activity against methicillin-resistant Staphylococcus aureus JCSC 4744 assessed as reduction in cell survival by measuring colony forming units at MIC after 24 hrs by time-kill assay relative to control. Format: functional.
Assay [16] concerns Staphylococcus aureus. Description: Bactericidal activity against methicillin-resistant Staphylococcus aureus JCSC 4744 assessed as reduction in cell survival at 8 fold MIC measured after 24 hrs by time-kill assay. Format: functional, organism-based.
The test system of assay [17] is Staphylococcus aureus. Description: Disruption of membrane integrity in methicillin-reisitant Staphylococcus aureus JCSC 4744 at 10 ug/ml measured within 2 mins by SYTOX-greeen-based fluorescence assay. Format: functional, organism-based.

Converted amounts (≈) assume the structure as drawn. The source made the active and inactive calls.

`COC1=C(C(=O)CC(C)C)C(=O)C(O)C1(C)C` (centres undefined): the MBC (in general, the smallest concentration meeting the test's criterion for killing) against Staphylococcus aureus [1] worked out at 3.12 µg/mL (≈ 13 µM); against Staphylococcus aureus [4], 6.25 µg/mL (≈ 26 µM); with Staphylococcus aureus [11] it was 6.25 µg/mL (≈ 26 µM); against Bacillus cereus [12], 25 µg/mL (≈ 104 µM). Also, the result with Staphylococcus aureus [2], with Staphylococcus aureus [7], in the assay with Staphylococcus aureus [9] and in the assay with Staphylococcus aureus [13] was Active. Besides, the MIC (in general, the least concentration at which growth counts as inhibited) with Staphylococcus aureus [3] was 3.12 µg/mL (≈ 13 µM); in the assay with Staphylococcus aureus [6] it was 1.56 µg/mL (≈ 6.49 µM); with Escherichia coli, more than 100 µg/mL; with Bacillus cereus [8], 12.5 µg/mL (≈ 52 µM); against Staphylococcus aureus [10], 3.12 µg/mL (≈ 13 µM). In the assay on Staphylococcus aureus [5], the Activity turned out to be 2 log10CFU/ml. Further, the “inhibition (INH)” value in the assay on Staphylococcus aureus [14] was 99%; in the assay with Staphylococcus aureus [15], 100%.

As to `CN[C@H](CC(C)C)C(=O)N[C@H]1C(=O)N[C@@H](CC(N)=O)C(=O)N[C@H]2C(=O)N[C@H]3C(=O)N[C@H](C(=O)N[C@H](C(=O)O)c4cc(O)cc(O)c4-c4cc3ccc4O)[C@H](O)c3ccc(c(Cl)c3)Oc3cc2cc(c3O[C@@H]2O[C@H](CO)[C@@H](O)[C@H](O)[C@H]2O[C@H]2C[C@](C)(N)[C@H](O)[C@H](C)O2)Oc2ccc(cc2Cl)[C@H]1O` [VANCOMYCIN], the minimal bactericidal concentration (MBC) against Staphylococcus aureus [1], against Staphylococcus aureus [4] and in the assay with Staphylococcus aureus [11] was 2.5 µg/mL (≈ 1.73 µM) in each case. Besides, the minimum inhibitory concentration (MIC) with Staphylococcus aureus [3] turned out to be 1.56 µg/mL (≈ 1.08 µM); with Staphylococcus aureus [6] it was 0.78 µg/mL (≈ 0.538 µM); against Escherichia coli it was 50 µg/mL (≈ 34.5 µM); in the assay with Bacillus cereus [8] it was 50 µg/mL (≈ 34.5 µM); against Staphylococcus aureus [10] it was 0.78 µg/mL (≈ 0.538 µM). The Activity in the assay on Staphylococcus aureus [5] is given as 2 log10CFU/ml. For the same compound, the “inhibition (INH)” value in the assay on Staphylococcus aureus [14] stood at 99%.

For the compound `COc1cc(O)c(C(=O)CC(C)C)c2c1[C@]1(O)C(O)=C(C(=O)C(C)C)C(=O)C[C@]1(OC)O2`, the MBC against Staphylococcus aureus [1] turned out to be 6.25 µg/mL (≈ 13.9 µM); with Staphylococcus aureus [4] it was 6.25 µg/mL (≈ 13.9 µM); against Staphylococcus aureus [11] it was 50 µg/mL (≈ 111 µM); in the assay with Bacillus cereus [12], 50 µg/mL (≈ 111 µM). Further, the outcome in the assay on Staphylococcus aureus [16], with Staphylococcus aureus [2], with Staphylococcus aureus [7], with Staphylococcus aureus [9] and with Staphylococcus aureus [13] was Active. Also, the minimal inhibitory concentration (MIC) against Staphylococcus aureus [3] was 25 µg/mL (≈ 55.7 µM); in the assay with Staphylococcus aureus [6], 3.12 µg/mL (≈ 6.96 µM); against Escherichia coli, more than 100 µg/mL; with Bacillus cereus [8], 25 µg/mL (≈ 55.7 µM); in the assay on Staphylococcus aureus [10], 3.12 µg/mL (≈ 6.96 µM). In addition, the Activity with Staphylococcus aureus [5] is 2 log10CFU/ml. For the same compound, the “inhibition (INH)” value with Staphylococcus aureus [14] is 99%; with Staphylococcus aureus [15] it was 100%.

Turning to `CC[C@H](C)[C@H](NC(=O)CN)C(=O)NCC(=O)N[C@@H](C)C(=O)N[C@H](C(=O)N[C@@H](CC(C)C)C(=O)N[C@@H](CCCCN)C(=O)N[C@H](C(=O)N[C@@H](CC(C)C)C(=O)N[C@H](C(=O)N[C@H](C(=O)NCC(=O)N[C@@H](CC(C)C)C(=O)N1CCC[C@H]1C(=O)N[C@@H](C)C(=O)N[C@@H](CC(C)C)C(=O)N[C@H](C(=O)N[C@@H](CO)C(=O)N[C@@H](Cc1c[nH]c2ccccc12)C(=O)N[C@H](C(=O)N[C@@H](CCCCN)C(=O)N[C@@H](CCCNC(=N)N)C(=O)N[C@@H](CCCCN)C(=O)N[C@@H](CCCNC(=N)N)C(=O)N[C@@H](CCC(N)=O)C(=O)N[C@@H](CCC(N)=O)C(N)=O)[C@@H](C)CC)[C@@H](C)CC)[C@@H](C)O)[C@@H](C)O)C(C)C)C(C)C`, in the assay with Staphylococcus aureus [17], the result was Active.

The record behind these values is ChEMBL document CHEMBL4334453, “Callistemonols A and B, Potent Antimicrobial Acylphloroglucinol Derivatives with Unusual Carbon Skeletons from Callistemon viminalis” (2019).
